Results as given in patent US11661583B2, “Drug discovery platform for Duchenne cardiomyopathy” (University of Washington, priority 2015, dated 2023).
Structures can show the parent of a compound that is named as a salt. Where two headings read alike, the source gives them in different places.

Columns and labels:
[1] = test system: dystrophin deficient cardiomyocytes; assay: High-throughput hypotonic stress cell viability (intracellular ATP) screen; settings: for Average of % viability: 384-well, 18 hours compound incubation, then 30 minutes at 12.5% normal osmolarity, CELLTITER-GLO, vs average of DMSO control wells, tested at 10^-8 to 10^-5 M, concentration not given; for Z score / Effect on viability in hypotonic stress screen (in words): primary screen; for Z score: data points ranked by Z score; for Effect on viability in hypotonic stress screen (in words): dose-response, FIG. 8
[2] = test system: dystrophin deficient cardiomyocytes
[3] = test system: dystrophin locus; assay: SURVEYOR assay of guide RNA targeting efficiency in HEK293T cells; format: cell-based, human; settings: FIG. 9A
Source text: (THERMO […], Waltham, Mass.) using primer set […] ID NO:3) and […] ID NO:4).

Compound	Average of % viability [1] [%]	Z score [1]	Average of % viability [2] [%]	cutting efficiency [3] [%]	Effect on viability in hypotonic stress screen (in words) [1]
CC(=O)c1ccc2c(c1)N(CCCN(C)C)c1ccccc1S2 [ACEPROMAZINE MALEATE]	239.1 ± 38.37	6.57	–	–	–
COc1cc([C@@H]2c3cc4c(cc3[C@H](O)[C@H]3COC(=O)[C@H]23)OCO4)cc(OC)c1OC [PODOFILOX]	168.46 ± 28.98	3.38	–	–	–
CCN(CC)CCOc1ccc2c(c1)C(=O)c1cc(OCCN(CC)CC)ccc1-2 [TILORONE]	172.53 ± 15.79	3.56	–	–	–
CCCCC1C(=O)N(c2ccccc2)N(c2ccc(O)cc2)C1=O (centres unmarked) [OXYPHENBUTAZONE]	–	3.76	176.96 ± 42.53	–	–
Nc1ccc(C(=O)NCC(=O)O)cc1 [AMINOHIPPURIC ACID]	207.49 ± 7.09	5.14	–	–	–
CO[C@H]1C[C@H](O[C@@H]2/C(C)=C/C[C@@H]3C[C@@H](C[C@]4(CC[C@H](C)[C@@H](C5CCCCC5)O4)O3)OC(=O)[C@@H]3C=C(C)/C(=N/O)[C@H]4OC/C(=C\C=C\[C@@H]2C)[C@]43O)O[C@@H](C)[C@@H]1O [SELAMECTIN]	172.91 ± 25.29	3.58	–	–	–
C[C@@]12C(=O)OC(=O)[C@]1(C)[C@H]1CC[C@@H]2O1 [CANTHARIDIN]	239.59 ± 14.65	6.59	–	–	–
C=CC1=C(C(=O)O)N2C(=O)[C@@H](NC(=O)/C(=N\O)c3csc(N)n3)[C@H]2SC1	185.70 ± 45.76	4.16	–	–	–
CN1CCN(C(c2ccccc2)c2ccc(Cl)cc2)CC1 (centres unmarked) [CHLORCYCLIZINE HYDROCHLORIDE]	238.84 ± 35.23	6.56	–	–	–
O=C(O)C(O)C(O)C(=O)O.OCc1cccnc1 (centres unmarked) [NICOTINYL ALCOHOL TARTRATE]	262.12 ± 57.89	7.61	–	–	–
CCOC(=O)C1=C(C)NC(C)=C(C(=O)OC)C1c1cccc([N+](=O)[O-])c1 (centres unmarked) [NITRENDIPINE]	275.48 ± 52.16	8.21	–	–	–
COc1ccc(C[C@H](N)C(=O)N[C@H]2[C@@H](O)[C@H](n3cnc4c(N(C)C)ncnc43)O[C@@H]2CO)cc1 [PUROMYCIN HYDROCHLORIDE]	187.84 ± 39.68	4.25	–	–	–
O=C(O)CCCC[C@@H]1SC[C@@H]2NC(=O)N[C@@H]21 [BIOTIN]	315.95 ± 51.89	10.04	–	–	–
COC(=O)[C@H](c1ccccc1Cl)N1CCc2sccc2C1 [CLOPIDOGREL SULFATE]	194.84 ± 50.3	4.57	–	–	–
COc1cccc2c1C(=O)c1c(O)c3c(c(O)c1C2=O)C[C@@](O)(C(=O)CO)C[C@@H]3O[C@H]1C[C@H](N)[C@H](O)[C@H](C)O1 [DOXORUBICIN]	207.98 ± 34.29	5.16	–	–	–
CC(=O)OCC(=O)[C@@]1(O)CC[C@H]2[C@@H]3CCC4=CC(=O)CC[C@]4(C)[C@H]3C(=O)C[C@@]21C [CORTISONE ACETATE]	205.92 ± 12.32	5.07	–	–	–
CN(C)c1nc(N(C)C)nc(N(C)C)n1 [ALTRETAMINE]	188.22 ± 2.87	4.27	–	–	–
CC(C)NCC(O)COc1ccc(CC(N)=O)cc1 (centres unmarked) [ATENOLOL]	–	3.51	–	–	–
NC(=O)NO [HYDROXYUREA]	187.65 ± 49.61	4.25	–	–	–
C[C@]12CC[C@@H]3c4ccc(OS(=O)(=O)O)cc4CC[C@H]3[C@@H]1CCC2=O [ESTROPIPATE]	208.65 ± 30.77	5.19	–	–	–
O=C(CCCN1CCC(O)(c2ccc(Cl)cc2)CC1)c1ccc(F)cc1 [HALOPERIDOL]	197.30 ± 19.03	4.68	–	–	–
CN1CCc2c(c3ccccc3n2Cc2ccccc2)C1.CN1CCc2c(c3ccccc3n2Cc2ccccc2)C1.O=S(=O)(O)c1cccc2c(S(=O)(=O)O)cccc12 [MEBHYDROLIN NAPHTHALENE SULFONATE]	–	3.58	–	–	–

Compound	Average of % viability [1] [%]	Z score [1]	Average of % viability [2] [%]	cutting efficiency [3] [%]	Effect on viability in hypotonic stress screen (in words) [1]
CCCN(CCC)C(=O)C(CCC(=O)O)NC(=O)c1ccccc1 (centres unmarked) [PROGLUMIDE]	175.69 ± 50.35	3.71	–	–	–
NC(=O)c1ccc([N+](=O)[O-])cc1Cl [AKLOMIDE]	276.60 ± 12.37	8.26	–	–	–
ANTIMYCIN A	180.04 ± 1.89	3.90	–	–	–
O=C(O)c1cc(-c2ccccc2)nc2ccccc12 [CINCHOPHEN]	168.44 ± 44.63	3.38	–	–	–
CC(C)COCC(CN(Cc1ccccc1)c1ccccc1)N1CCCC1 (centres unmarked) [BEPRIDIL HYDROCHLORIDE]	178.65 ± 3.48	3.84	–	–	–
CN(C)/N=N/c1[nH]cnc1C(N)=O [DACARBAZINE]	177.63 ± 45.35	3.79	–	–	–
gRNA 4: guide sequence GCTTTGGTGGGAAGAAGTAGAGG (SEQ ID NO: 8) targeting first muscle exon of human dystrophin (listed as DNA, chemistry not fully specified)	–	–	–	44.3	–
COCCOC(=O)C1=C(C)NC(C)=C(C(=O)OC(C)C)C1c1cccc([N+](=O)[O-])c1 (centres unmarked) [NIMODIPINE]	292.38 ± 56.17	8.97	–	–	–
COc1ccc2cc([C@H](C)CO)ccc2c1 [NAPROXOL]	168.76 ± 2.61	3.39	–	–	–
Nc1nc2c(ncn2COCCO)c(=O)[nH]1 [ACYCLOVIR]	258.33 ± 14.16	7.44	–	–	–
CCCCc1oc2ccccc2c1C(=O)c1cc(I)c(OCCN(CC)CC)c(I)c1 [AMIODARONE HYDROCHLORIDE]	–	3.37	–	–	–
CC(C)(C)c1ccc(C(O)CCCN2CCC(C(O)(c3ccccc3)c3ccccc3)CC2)cc1 (centres unmarked) [TERFENADINE]	211.28 ± 22.46	5.31	–	–	–
O=C1O[C@H]([C@@H](O)CO)C(O)=C1O [ASCORBIC ACID]	181.48 ± 23.68	–	–	–	–
BENZALKONIUM CHLORIDE	194.64 ± 23.10	4.56	–	–	–
CC=CC(=O)N(CC)c1ccccc1C [CROTAMITON]	178.25 ± 27.22	3.82	–	–	–
COc1ncnc(NS(=O)(=O)c2ccc(N)cc2)c1OC [SULFADOXINE]	195.32 ± 23.52	4.59	–	–	–
Cn1c(=O)c2c(ncn2C)n(C)c1=O [Caffeine]	–	–	–	–	demonstrated the opposite effect
CN1C(=O)CC[C@H]1c1cccnc1 [COTININE]	188.79 ± 56.0	4.30	–	–	–
CCCCCCCCCCCCCCCC(=O)OC/C=C(C)/C=C/C=C(C)/C=C/C1=C(C)CCCC1(C)C [RETINYL PALMITATE]	236.79 ± 46.63	6.46	–	–	–
CC(=O)O[C@H]1CC[C@@]2(C)[C@H](CC[C@@H]3[C@@H]2CC[C@]2(C)[C@@H](C4=CC(=O)OC4)[C@@H](OC(C)=O)C[C@]32O)C1 [GITOXIGENIN DIACETATE]	177.20 ± 1.17	3.77	–	–	–
C[C@@H]1CC[C@@]2(OC1)O[C@H]1[C@@H](O)[C@H]3[C@@H]4CC[C@H]5C[C@@H](O[C@@H]6O[C@H](CO)[C@H](O[C@@H]7O[C@H](CO)[C@@H](O)[C@H](O[C@@H]8OC[C@@H](O)[C@H](O)[C@H]8O)[C@H]7O[C@@H]7O[C@H](CO)[C@H](O)[C@H](O[C@@H]8O[C@H](CO)[C@@H](O)[C@H](O)[C@H]8O)[C@H]7O)[C@H](O)[C@H]6O)[C@H](O)C[C@]5(C)[C@H]4CC[C@]3(C)[C@H]1[C@@H]2C [digitonin]	–	lowest Z score	–	–	dose-responsive toxicity
